Source: PubChem BioAssay AID1745844 (Carcinogenic Potency Database (CPDB), 2022)
Activity calls are given as the source filed them. How the calls were made is not given here.

Tested on: rodent lifetime carcinogenesis bioassay, tumor incidence TD50
Assay: chronic cancer bioassays in animals – CPDB, compiled studies (AID 1745844)

In the case of OCCBr, the TD50 (mouse, strain B6C3F1, females, in drinking water, site: any site (literature study), lesion: several types, types named in the paper, dosed 79 weeks, study length 79 weeks) is reported as 73.2 mg/kg/day, the TD50 (mouse, strain B6C3F1, females, in drinking water, site: forestomach, lesion: squamous-cell papilloma, dosed 79 weeks, study length 79 weeks) is reported as 69.7 mg/kg/day and the TD50 (mouse, strain B6C3F1, females, in drinking water, site: liver, lesion: hemangioma, dosed 79 weeks, study length 79 weeks) is reported as 800 mg/kg/day. It also gave a TD50 (mouse, strain B6C3F1, females, in drinking water, site: lung, lesion: papillary tumor, dosed 79 weeks, study length 79 weeks) of 1890 mg/kg/day, a TD50 (mouse, strain B6C3F1, males, in drinking water, site: any site (literature study), lesion: several types, types named in the paper, dosed 78 weeks, study length 78 weeks) of 86.6 mg/kg/day and a TD50 (mouse, strain B6C3F1, males, in drinking water, site: forestomach, lesion: squamous-cell papilloma, dosed 78 weeks, study length 78 weeks) of 83.9 mg/kg/day.
With CCOC(=O)C1OC1(C)c1ccccc1 (stereo unspecified) the TD50 (rat, strain Wistar, females, in feed, site: any site (literature study), lesion: benign tumor, dosed 104 weeks, study length 104 weeks) was 253 mg/kg/day (inactive), the TD50 (rat, strain Wistar, females, in feed, site: any site (literature study), lesion: malignant tumor, dosed 104 weeks, study length 104 weeks) was 2230 mg/kg/day (inactive) and the TD50 (rat, strain Wistar, females, in feed, site: liver, lesion: hemangioendothelioma, dosed 104 weeks, study length 104 weeks) was 9360 mg/kg/day (inactive). The TD50 (rat, strain Wistar, females, in feed, site: pituitary gland, lesion: adenoma, dosed 104 weeks, study length 104 weeks) was 331 mg/kg/day (inactive), the TD50 (rat, strain Wistar, males, in feed, site: any site (literature study), lesion: benign tumor, dosed 104 weeks, study length 104 weeks) was 1150 mg/kg/day (inactive) and the TD50 (rat, strain Wistar, males, in feed, site: any site (literature study), lesion: malignant tumor, dosed 104 weeks, study length 104 weeks) was 4110 mg/kg/day (inactive). For the same compound, the carcinogen call (rat, strain Wistar, males, in feed, site: liver, lesion: one or several types, types not named, dosed 104 weeks, study length 104 weeks) was “negative (inactive)” and the TD50 (rat, strain Wistar, males, in feed, site: testis, lesion: interstitial-cell tumor, dosed 104 weeks, study length 104 weeks) was 1150 mg/kg/day (inactive).
With CC1=C(/C=C/C(C)=C/C=C/C(C)=C/C=C/C=C(C)/C=C/C=C(C)/C=C/C2=C(C)CCCC2(C)C)C(C)(C)CCC1 the TD50 (mouse, strain Charles River CD1, females, in feed, site: liver, lesion: hepatocellular adenoma, dosed 105 weeks, study length 105 weeks) was 15900 mg/kg/day (inactive), the carcinogen call (mouse, strain Charles River CD1, females, in feed, site: liver, lesion: hepatocellular carcinoma, dosed 105 weeks, study length 105 weeks) was “negative (inactive)” and the carcinogen call (mouse, strain Charles River CD1, females, in feed, site: lung, lesion: adenocarcinoma, dosed 105 weeks, study length 105 weeks) was “negative (inactive)”. For the same compound, the TD50 (mouse, strain Charles River CD1, females, in feed, site: lung, lesion: adenoma, dosed 105 weeks, study length 105 weeks) was 93600 mg/kg/day (inactive), the carcinogen call (mouse, strain Charles River CD1, males, in feed, site: liver, lesion: hepatocellular adenoma, dosed 105 weeks, study length 105 weeks) was “negative (inactive)” and the TD50 (mouse, strain Charles River CD1, males, in feed, site: liver, lesion: hepatocellular carcinoma, dosed 105 weeks, study length 105 weeks) was 49700 mg/kg/day (inactive). The TD50 (mouse, strain Charles River CD1, males, in feed, site: lung, lesion: adenocarcinoma, dosed 105 weeks, study length 105 weeks) was 26400 mg/kg/day (inactive) and the TD50 (mouse, strain Charles River CD1, males, in feed, site: lung, lesion: adenoma, dosed 105 weeks, study length 105 weeks) was 71400 mg/kg/day (inactive).
For CC1CN(N=O)CC(C)N1N=O (stereo unspecified), the TD50 (hamster, strain Syrian Golden, males, by gavage, site: any site (literature study), lesion: several types, types named in the paper, dosed 35 weeks, study length 76 weeks) was 0.932 mg/kg/day, the TD50 (hamster, strain Syrian Golden, males, by gavage, site: forestomach, lesion: papilloma, dosed 35 weeks, study length 76 weeks) was 3.1 mg/kg/day and the TD50 (hamster, strain Syrian Golden, males, by gavage, site: liver, lesion: angiosarcoma, dosed 35 weeks, study length 76 weeks) was 8.3 mg/kg/day. The TD50 (hamster, strain Syrian Golden, males, by gavage, site: lung, lesion: adenoma, dosed 35 weeks, study length 76 weeks) was 6.04 mg/kg/day.
In the case of FC(Cl)C(F)(F)F (stereo unspecified), the TD50 (rat, strain Charles River CD (Sprague-Dawley), females, inhaled, site: mammary gland, lesion: fibroadenoma, dosed 104 weeks, study length 104 weeks) is reported as 56300 mg/kg/day (inactive) and the TD50 (rat, strain Charles River CD (Sprague-Dawley), females, inhaled, site: mammary gland, lesion: several types, types named in the paper, dosed 104 weeks, study length 104 weeks) is reported as 54000 mg/kg/day (inactive).
CC(=O)Nc1ccc(-c2ccc(F)cc2)cc1 was tested, and the TD50 (rat, strain Fischer 344, males, in feed, site: kidney, lesion: adenocarcinoma, dosed 52 weeks, study length 52 weeks) was 1.01 mg/kg/day.
CCCOC(=O)C1c2cc3c(cc2CC(C)C1C(=O)OCCC)OCO3 (stereo unspecified) was tested, and the TD50 (mouse, strain B6AKF1, females, oral dosing, site: any site (literature study), lesion: several types, types named in the paper, dosed 76 weeks, study length 76 weeks) was 4390 mg/kg/day (inactive), the carcinogen call (mouse, strain B6AKF1, females, oral dosing, site: liver, lesion: hepatoma, dosed 76 weeks, study length 76 weeks) was “negative (inactive)” and the TD50 (mouse, strain B6AKF1, females, oral dosing, site: lung, lesion: adenoma, dosed 76 weeks, study length 76 weeks) was 4690 mg/kg/day (inactive). The carcinogen call (mouse, strain B6AKF1, males, oral dosing, site: any site (literature study), lesion: several types, types named in the paper, dosed 76 weeks, study length 76 weeks) was “negative (inactive)”, the carcinogen call (mouse, strain B6AKF1, males, oral dosing, site: liver, lesion: hepatoma, dosed 76 weeks, study length 76 weeks) was “negative (inactive)” and the carcinogen call (mouse, strain B6AKF1, males, oral dosing, site: lung, lesion: adenoma, dosed 76 weeks, study length 76 weeks) was “negative (inactive)”. The carcinogen call (mouse, strain B6C3F1, females, oral dosing, site: any site (literature study), lesion: one or several types, types not named, dosed 76 weeks, study length 76 weeks) was “negative (inactive)”, the carcinogen call (mouse, strain B6C3F1, females, oral dosing, site: liver, lesion: hepatoma, dosed 76 weeks, study length 76 weeks) was “negative (inactive)” and the carcinogen call (mouse, strain B6C3F1, females, oral dosing, site: lung, lesion: several types, types named in the paper, dosed 76 weeks, study length 76 weeks) was “negative (inactive)”. The TD50 (mouse, strain B6C3F1, males, oral dosing, site: any site (literature study), lesion: several types, types named in the paper, dosed 76 weeks, study length 76 weeks) was 374 mg/kg/day (inactive), the TD50 (mouse, strain B6C3F1, males, oral dosing, site: liver, lesion: hepatoma, dosed 76 weeks, study length 76 weeks) was 1050 mg/kg/day (inactive) and the TD50 (mouse, strain B6C3F1, males, oral dosing, site: lung, lesion: adenoma, dosed 76 weeks, study length 76 weeks) was 4650 mg/kg/day (inactive).
For Nc1ccc(/C=C/c2ccc(N)c(S(=O)(=O)O)c2)c(S(=O)(=O)O)c1, the carcinogen call (mouse, strain B6C3F1, females, in feed, site: any site (literature study), lesion: several types, types named in the paper, dosed 103 weeks, study length 104 weeks) was “negative (inactive)”, the TD50 (mouse, strain B6C3F1, males, in feed, site: any site (literature study), lesion: several types, types named in the paper, dosed 103 weeks, study length 104 weeks) was 12900 mg/kg/day and the TD50 (mouse, strain B6C3F1, males, in feed, site: liver, lesion: hepatocellular adenoma + hepatocellular carcinoma + neoplastic nodule, dosed 103 weeks, study length 104 weeks) was 9720 mg/kg/day. The TD50 (mouse, strain B6C3F1, males, in feed, site: liver, lesion: hepatocellular adenoma, dosed 103 weeks, study length 104 weeks) was 2570 mg/kg/day (inactive), the TD50 (rat, strain Fischer 344, females, in feed, site: any site (literature study), lesion: several types, types named in the paper, dosed 103 weeks, study length 104 weeks) was 17600 mg/kg/day (inactive) and the TD50 (rat, strain Fischer 344, males, in feed, site: any site (literature study), lesion: several types, types named in the paper, dosed 103 weeks, study length 104 weeks) was 5810 mg/kg/day (inactive). It also gave a TD50 (rat, strain Fischer 344, males, in feed, site: liver, lesion: hepatocellular adenoma + hepatocellular carcinoma + neoplastic nodule, dosed 103 weeks, study length 104 weeks) of 5020 mg/kg/day.
O=c1cc(CO)occ1O gave a TD50 (mouse, strain B6C3F1, females, in feed, site: liver, lesion: hepatocellular adenoma, dosed 84 weeks, study length 88 weeks) of 20900 mg/kg/day, a TD50 (mouse, strain B6C3F1, females, in feed, site: thyroid gland, lesion: follicular-cell adenoma, dosed 84 weeks, study length 88 weeks) of 2610 mg/kg/day and a TD50 (mouse, strain B6C3F1, males, in feed, site: liver, lesion: hepatocellular adenoma, dosed 84 weeks, study length 88 weeks) of 19700 mg/kg/day. For the same compound, the TD50 (mouse, strain B6C3F1, males, in feed, site: thyroid gland, lesion: follicular-cell adenoma, dosed 52 weeks, study length 52 weeks) was 323 mg/kg/day and the TD50 (mouse, strain B6C3F1, males, in feed, site: thyroid gland, lesion: follicular-cell adenoma, dosed 84 weeks, study length 88 weeks) was 927 mg/kg/day.
For CC[C@@H]1NC(=O)[C@@H]2[C@H](Cl)[C@H](Cl)CN2C(=O)[C@H](CO)NC(=O)C[C@H](c2ccccc2)NC(=O)[C@H](CO)NC1=O, the TD50 (mouse, strain ddNi, males, in feed, site: liver, lesion: hepatoma, dosed 160 weeks, study length 160 weeks) was 99.5 mg/kg/day, the TD50 (mouse, strain ddNi, males, in feed, site: liver, lesion: liver-cell adenoma, dosed 160 weeks, study length 160 weeks) was 48.6 mg/kg/day and the TD50 (mouse, strain ddNi, males, in feed, site: liver, lesion: liver-cell carcinoma, dosed 160 weeks, study length 160 weeks) was 98.9 mg/kg/day. The TD50 (mouse, strain ddNi, males, in feed, site: liver, lesion: several types, types named in the paper, dosed 160 weeks, study length 160 weeks) was 23.6 mg/kg/day.
With CCOC(=O)C(C)(C)Oc1ccc(Cl)cc1 the TD50 (mouse, strain AP Alderly Park, females, in feed, site: liver, lesion: hepatocellular adenoma, dosed 78 weeks, study length 78 weeks) was 1480 mg/kg/day (inactive), the TD50 (mouse, strain AP Alderly Park, males, in feed, site: liver, lesion: hepatocellular adenoma, dosed 78 weeks, study length 78 weeks) was 313 mg/kg/day (inactive) and the TD50 (mouse, strain AP Alderly Park, males, in feed, site: liver, lesion: hepatocellular carcinoma, dosed 78 weeks, study length 78 weeks) was 9710 mg/kg/day (inactive). The TD50 (mouse, strain C57BL/10J, females, in feed, site: liver, lesion: hepatocellular adenoma, dosed 78 weeks, study length 78 weeks) was 14700 mg/kg/day (inactive), the carcinogen call (mouse, strain C57BL/10J, females, in feed, site: lung, lesion: one or several types, types not named, dosed 78 weeks, study length 78 weeks) was “negative (inactive)” and the TD50 (mouse, strain C57BL/10J, males, in feed, site: liver, lesion: hepatocellular adenoma, dosed 78 weeks, study length 78 weeks) was 3640 mg/kg/day (inactive). For the same compound, the carcinogen call (mouse, strain C57BL/10J, males, in feed, site: lung, lesion: one or several types, types not named, dosed 78 weeks, study length 78 weeks) was “negative (inactive)”, the TD50 (rat, strain Fischer 344, males, in feed, site: liver, lesion: hepatocellular carcinoma, dosed 121 weeks, study length 121 weeks) was 169 mg/kg/day and the TD50 (rat, strain Fischer 344, males, in feed, site: pancreas, lesion: acinar-cell carcinoma, dosed 121 weeks, study length 121 weeks) was 1300 mg/kg/day.
